# Laboratory results reported in US9156801B2, “2-substituted oleanolic acid derivative, method preparing for same, and application thereof” (HANGZHOU BENSHENG PHARMACEUTICAL CO., LTD., priority 2011, dated 2015).
# Legend:
# H9 cell line = assay: leukemia cell growth inhibition, MTT; type: cell-based; conditions: Homo sapiens; for IC50: H9, 72 h; for inhibition at 16 µg/mL: H9, 16 μg/mL compound, 72 h, read-out: IR (cell proliferation inhibition rate)
# Summary of the method: (§1)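 Proliferation inhibition rates derive from MTT-measured viability, normalised so the compound-free group equals 0%. Exposure lasted 72 hours at 37° C, 5% CO2, starting from 6000 cells/well in serum-supplemented (10% FBS) 1640 medium.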
# Jurkat cell line = assay: leukemia cell growth inhibition, MTT; type: cell-based; conditions: Homo sapiens, 72 h; for inhibition at 16 µg/mL: 16 μg/mL compound, read-out: IR (cell proliferation inhibition rate)
# Summary of the method: as §1
# K562/adr cell line = assay: leukemia cell growth inhibition, MTT; type: cell-based; conditions: Homo sapiens, 72 h; for IC50: K562/Adr; for inhibition at 16 µg/mL: K562/adr, 16 μg/mL compound, read-out: IR (cell proliferation inhibition rate)
# Summary of the method: as §1
# Kasumi-1 cell line = assay: leukemia cell growth inhibition, MTT; type: cell-based; conditions: Homo sapiens; for inhibition at 16 µg/mL: Kasumi-1, 16 μg/mL compound, 72 h, read-out: IR (cell proliferation inhibition rate); for IC50: Kasumi-1, 72 h
# Summary of the method: as §1
# NB4 cell line = assay: leukemia cell growth inhibition, MTT; type: cell-based; conditions: Homo sapiens, NB-4; for inhibition at 16 µg/mL: NB4, 16 μg/mL compound, 72 h, read-out: IR (cell proliferation inhibition rate); for IC50: NB4, 72 h
# Summary of the method: as §1
# RPMI8226 cell line = assay: multiple myeloma cell growth inhibition, MTT; type: cell-based; conditions: Homo sapiens, RPMI-8226; for inhibition at 16 µg/mL: RPMI8226, 16 μg/mL compound, 72 h, read-out: IR (cell proliferation inhibition rate); for IC50: RPMI8226, 72 h
# Summary of the method: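 Viability was measured by MTT after a 72 h compound exposure (37° C, 5% CO2) of RPMI8226 myeloma cells seeded at 6000 per well in 1640 medium with 10% fetal bovine serum. Growth inhibition was expressed relative to untreated cells, taken as 0%.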
# Hep G2 cell line = assay: solid tumor cell growth inhibition, MTT; type: cell-based, human; conditions: Homo sapiens; for inhibition at 16 µg/mL: HepG2, 72 h, Hep G2, 16 μg/mL compound, 72 h, read-out: IR (cell proliferation inhibition rate); for IC50: HepG2, Hep G2, 72 h
# Summary of the method: (§2)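 4000 cells/well, DMEM high glucose + 10% FBS, 37° C/5% CO2; 24 h attach, compound (range of concentrations) 72 h; MTT viability; untreated control = 0% inhibition.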
# A549 cell line = assay: solid tumor cell growth inhibition, MTT; type: cell-based; conditions: Homo sapiens; for IC50: A549, 72 h; for inhibition at 16 µg/mL: A549, 16 μg/mL compound, 72 h, read-out: IR (cell proliferation inhibition rate)
# Summary of the method: as §2
# Becap37 cell line = assay: solid tumor cell growth inhibition, MTT; type: cell-based; conditions: Homo sapiens; for inhibition at 16 µg/mL: Becap37, 16 μg/mL compound, 72 h, read-out: IR (cell proliferation inhibition rate); for IC50: Becap37, 72 h
# Summary of the method: as §2
# CNE cell line = assay: solid tumor cell growth inhibition, MTT; type: cell-based; conditions: Homo sapiens, 72 h; for inhibition at 16 µg/mL: 16 μg/mL compound, read-out: IR (cell proliferation inhibition rate)
# Summary of the method: as §2
# CaES-17 cell line = assay: solid tumor cell growth inhibition, MTT; type: cell-based; conditions: Homo sapiens, CaEs17; for inhibition at 16 µg/mL: CaES-17, 16 μg/mL compound, 72 h, read-out: IR (cell proliferation inhibition rate); for IC50: CaES-17, 72 h
# Summary of the method: as §2
# Hela cell line = assay: solid tumor cell growth inhibition, MTT; type: cell-based; conditions: Homo sapiens, 72 h; for IC50: HeLa; for inhibition at 16 µg/mL: Hela, 16 μg/mL compound, read-out: IR (cell proliferation inhibition rate)
# Summary of the method: as §2
# Hep-2 cell line = assay: solid tumor cell growth inhibition, MTT; type: cell-based; conditions: Homo sapiens; for IC50: HEp-2, 72 h; for inhibition at 16 µg/mL: Hep-2, 16 μg/mL compound, 72 h, read-out: IR (cell proliferation inhibition rate)
# Summary of the method: as §2
# MG-63 cell line = assay: solid tumor cell growth inhibition, MTT; type: cell-based; conditions: Homo sapiens; for IC50: MG-63, 72 h; for inhibition at 16 µg/mL: MG-63, 16 μg/mL compound, 72 h, read-out: IR (cell proliferation inhibition rate)
# Summary of the method: as §2
# MGC 803 cell line = assay: solid tumor cell growth inhibition, MTT; type: cell-based; conditions: Homo sapiens; for inhibition at 16 µg/mL: MGC 803, 16 μg/mL compound, 72 h, read-out: IR (cell proliferation inhibition rate); for IC50: MGC 803, 72 h
# Summary of the method: as §2
# PANC-1 cell line = assay: solid tumor cell growth inhibition, MTT; type: cell-based; conditions: Homo sapiens; for IC50: PANC-1, 72 h; for inhibition at 16 µg/mL: PANC-1, 16 μg/mL compound, 72 h, read-out: IR (cell proliferation inhibition rate)
# Summary of the method: as §2
# PC-3 cell line = assay: solid tumor cell growth inhibition, MTT; type: cell-based; conditions: Homo sapiens; for IC50: PC-3, 72 h; for inhibition at 16 µg/mL: PC-3, 16 μg/mL compound, 72 h, read-out: IR (cell proliferation inhibition rate)
# Summary of the method: as §2
# RKO cell line = assay: solid tumor cell growth inhibition, MTT; type: cell-based; conditions: Homo sapiens, 72 h; for inhibition at 16 µg/mL: 16 μg/mL compound, read-out: IR (cell proliferation inhibition rate)
# Summary of the method: as §2
# SK-OV-3 cell line = assay: solid tumor cell growth inhibition, MTT; type: cell-based; conditions: Homo sapiens; for IC50: SK-OV-3, 72 h; for inhibition at 16 µg/mL: SK-OV-3, 16 μg/mL compound, 72 h, read-out: IR (cell proliferation inhibition rate)
# Summary of the method: as §2
# U87 MG cell line = assay: solid tumor cell growth inhibition, MTT; type: cell-based; conditions: Homo sapiens, U-87 MG, 72 h; for inhibition at 16 µg/mL: 16 μg/mL compound, read-out: IR (cell proliferation inhibition rate)
# Summary of the method: as §2
IC50 (H9 cell line) [µg/mL],IC50 (Jurkat cell line) [µg/mL],IC50 (K562/adr cell line) [µg/mL],IC50 (Kasumi-1 cell line) [µg/mL],IC50 (NB4 cell line) [µg/mL],IC50 (RPMI8226 cell line) [µg/mL],IC50 (Hep G2 cell line) [µg/mL],IC50 (A549 cell line) [µg/mL],IC50 (Becap37 cell line) [µg/mL],IC50 (CNE cell line) [µg/mL],Structure (SMILES),inhibition at 16 µg/mL (H9 cell line) [%],inhibition at 16 µg/mL (Jurkat cell line) [%],inhibition at 16 µg/mL (K562/adr cell line) [%],inhibition at 16 µg/mL (Kasumi-1 cell line) [%],inhibition at 16 µg/mL (NB4 cell line) [%],inhibition at 16 µg/mL (RPMI8226 cell line) [%],inhibition at 16 µg/mL (Hep G2 cell line) [%],inhibition at 16 µg/mL (A549 cell line) [%],inhibition at 16 µg/mL (Becap37 cell line) [%],inhibition at 16 µg/mL (CNE cell line) [%],further results
4.33,2.5,0.89,5.67,4.59,0.74,4.77,3.58,6.23,5.01,COC(=O)[C@]12CCC(C)(C)CC1C1=CCC3[C@@]4(C)CC(C(=O)NCCCN5CCN(C)CC5)C(=O)C(C)(C)C4CC[C@@]3(C)[C@]1(C)CC2 (some centres unmarked) [BS-OA-078],97.5,98.3,99.1,97.9,100,99.1,99.7,97.6,98.1,99.7,inhibition at 16 µg/mL (CaES-17 cell line): 99.4%; IC50 (CaES-17 cell line): 3.61 µg/mL; IC50 (Hela cell line): 4.54 µg/mL; inhibition at 16 µg/mL (Hela cell line): 99.4%; IC50 (Hep-2 cell line): 8.25 µg/mL; inhibition at 16 µg/mL (Hep-2 cell line): 97.3%; IC50 (MG-63 cell line): 5.7 µg/mL; inhibition at 16 µg/mL (MG-63 cell line): 100%; inhibition at 16 µg/mL (MGC 803 cell line): 99.5%; IC50 (MGC 803 cell line): 5.26 µg/mL; IC50 (PANC-1 cell line): 9.69 µg/mL; inhibition at 16 µg/mL (PANC-1 cell line): 100%; IC50 (PC-3 cell line): 6.82 µg/mL; inhibition at 16 µg/mL (PC-3 cell line): 98.4%; inhibition at 16 µg/mL (RKO cell line): 97.5%; IC50 (RKO cell line): 3.91 µg/mL; IC50 (SK-OV-3 cell line): 5.49 µg/mL; inhibition at 16 µg/mL (SK-OV-3 cell line): 98.9%; inhibition at 16 µg/mL (U87 MG cell line): 98.6%; IC50 (U87 MG cell line): 3 µg/mL
> 16,> 16,6.52,> 16,10.6,10.5,> 16,> 16,> 16,10.6,CC1(C)CC[C@]2(C(=O)O)CC[C@]3(C)C(=CC[C@@H]4[C@@]5(C)CC(C(=O)NCCN6CCCC6)C(=O)C(C)(C)[C@@H]5CC[C@]43C)[C@@H]2C1 (some centres unmarked) [BS-OA-105],31.5,37.5,85,36.6,74.7,81.8,29.5,24,43.7,54.5,inhibition at 16 µg/mL (CaES-17 cell line): 45%; IC50 (CaES-17 cell line): 18.9 µg/mL; IC50 (Hela cell line): 7.29 µg/mL; inhibition at 16 µg/mL (Hela cell line): 68.1%; IC50 (Hep-2 cell line): > 16 µg/mL; inhibition at 16 µg/mL (Hep-2 cell line): 28.4%; IC50 (MG-63 cell line): 12.6 µg/mL; inhibition at 16 µg/mL (MG-63 cell line): 54.6%; inhibition at 16 µg/mL (MGC 803 cell line): 29.2%; IC50 (MGC 803 cell line): > 16 µg/mL; IC50 (PANC-1 cell line): > 16 µg/mL; inhibition at 16 µg/mL (PANC-1 cell line): 16.9%; IC50 (PC-3 cell line): > 16 µg/mL; inhibition at 16 µg/mL (PC-3 cell line): 18.4%; inhibition at 16 µg/mL (RKO cell line): 8.6%; IC50 (RKO cell line): > 16 µg/mL; IC50 (SK-OV-3 cell line): > 16 µg/mL; inhibition at 16 µg/mL (SK-OV-3 cell line): 5%; inhibition at 16 µg/mL (U87 MG cell line): 61.7%; IC50 (U87 MG cell line): 2.31 µg/mL
